Experimental data reported in patent US11746100B2 (GLOBAL BLOOD THERAPEUTICS, INC., priority 2020, dated 2023).

The compounds below were run against T1, human ferroportin (Homo sapiens, UniProt Q9NP59) (assay: Biological in-vitro ferroportin internalization assay (luciferase reporter)). Conditions: average pEC50; stably-transfected CHO cell line expressing human ferroportin tagged to a luciferase reporter; 6 h incubation with test compound.
T1 construct: luciferase reporter (read with the Nano-Glo Luciferase Assay System); expressed in transfected cells; host or cells: CHO cells, stably transfected, expression induced with doxycycline
T1 sequence (Q9NP59 1-571): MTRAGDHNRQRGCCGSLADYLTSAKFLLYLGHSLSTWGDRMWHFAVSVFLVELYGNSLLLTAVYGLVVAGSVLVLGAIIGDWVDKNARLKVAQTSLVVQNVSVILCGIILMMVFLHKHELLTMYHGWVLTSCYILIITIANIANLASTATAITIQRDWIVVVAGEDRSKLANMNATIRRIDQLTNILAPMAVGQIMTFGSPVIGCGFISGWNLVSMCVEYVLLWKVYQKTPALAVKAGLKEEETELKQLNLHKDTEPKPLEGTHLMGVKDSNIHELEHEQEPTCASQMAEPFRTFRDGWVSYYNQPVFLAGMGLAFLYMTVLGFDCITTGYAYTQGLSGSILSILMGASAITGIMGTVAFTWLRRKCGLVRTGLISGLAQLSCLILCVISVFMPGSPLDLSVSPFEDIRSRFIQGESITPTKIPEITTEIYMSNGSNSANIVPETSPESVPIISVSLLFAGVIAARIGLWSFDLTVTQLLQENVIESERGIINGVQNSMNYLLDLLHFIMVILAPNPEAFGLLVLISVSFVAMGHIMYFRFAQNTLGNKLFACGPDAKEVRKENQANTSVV
Assay type: cell-based
In short: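 Stably transfected CHO cells expressing luciferase-tagged human ferroportin, plated 24 h with ferric ammonium citrate and induced with doxycycline for 24 h. Compounds incubated 6 h, then luciferase activity measured by Nano-Glo; average pEC50 reported.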

Structure (SMILES) | pEC50
COc1ncc(NC(=O)CN(C)c2nc(-c3cn(C)cn3)nc3c2CCC3)cn1 [Compound 186, N-(2-methoxypyrimidin-5-yl)-2-{methyl[2-(1-methyl-1H-imidazol-4-yl)-5H,6H,7H-cyclopenta[d]pyrimidin-4-yl]amino}acetamide] | 7
COc1ccc(N2CCCN(c3nc(-c4ccccn4)nc4c3CCC4)CC2=O)cc1 [Compound 188, 1-(4-methoxyphenyl)-4-[2-(pyridin-2-yl)-5H,6H,7H-cyclopenta[d]pyrimidin-4-yl]-1,4-diazepan-2-one] | 6.7
COc1ccc(NC(=O)CN(C)c2nc(-c3cn(C)cn3)nc3c2CCC3)nc1 [Compound 190, N-(5-methoxypyridin-2-yl)-2-{methyl[2-(1-methyl-1H-imidazol-4-yl)-5H,6H,7H-cyclopenta[d]pyrimidin-4-yl]amino}acetamide] | 7.8
Cc1cnc(-c2nc3c(c(N(C)CC(=O)NC(C)(C)C)n2)CCC3)cc1OCCO [Compound 191, N-tert-butyl-2-({2-[4-(2-hydroxyethoxy)-5-methylpyridin-2-yl]-5H,6H,7H-cyclopenta[d]pyrimidin-4-yl}(methyl)amino)acetamide] | 7
COc1cc(-c2nc3c(c(N(C)CC(=O)NC(C)(C)C)n2)CCC3)ncc1C [Compound 192, N-tert-butyl-2-{[2-(4-methoxy-5-methylpyridin-2-yl)-5H,6H,7H-cyclopenta[d]pyrimidin-4-yl](methyl)amino}acetamide] | 6.5
CCn1cnc(-c2nc3c(c(N(C)CC(=O)NC(C)(C)C)n2)CCC3)c1 [Compound 193, N-tert-butyl-2-{[2-(1-ethyl-1H-imidazol-4-yl)-5H,6H,7H-cyclopenta[d]pyrimidin-4-yl](methyl)amino}acetamide] | 6.8
CCn1cncc1-c1nc2c(c(N(C)CC(=O)NC(C)(C)C)n1)CCC2 [Compound 194, N-tert-butyl-2-{[2-(1-ethyl-1H-imidazol-5-yl)-5H,6H,7H-cyclopenta[d]pyrimidin-4-yl](methyl)amino}acetamide] | 5.4
CN(CC(=O)NC(C)(C)C)c1nc(-c2cn(CCO)cn2)nc2c1CCC2 [Compound 195, N-tert-butyl-2-({2-[1-(2-hydroxyethyl)-1H-imidazol-4-yl]-5H,6H,7H-cyclopenta[d]pyrimidin-4-yl}(methyl)amino)acetamide] | 6.9
CN(CC(=O)NC(C)(C)C)c1nc(-c2cncn2CCO)nc2c1CCC2 [Compound 196, N-tert-butyl-2-({2-[1-(2-hydroxyethyl)-1H-imidazol-5-yl]-5H,6H,7H-cyclopenta[d]pyrimidin-4-yl}(methyl)amino)acetamide] | 5.6
CN(CC(=O)Nc1ccc(F)cc1)c1nc(-c2cn(C)cn2)nc2c1CCC2 [Compound 202, N-(4-fluorophenyl)-2-{methyl[2-(1-methyl-1H-imidazol-4-yl)-5H,6H,7H-cyclopenta[d]pyrimidin-4-yl]amino}acetamide] | 7.5
COc1ccc(N2CCN(c3nc(-c4ccccn4)nc4c3CCC4)CCC2=O)cc1 [Compound 203, 4-(4-methoxyphenyl)-1-[2-(pyridin-2-yl)-5H,6H,7H-cyclopenta[d]pyrimidin-4-yl]-1,4-diazepan-5-one] | 6.3
C[C@H](C(=O)NC1(C)CC1)N(C)c1nc(-c2ccccn2)nc2c1CCC2 [Compound 204, (2R)-2-{methyl[2-(pyridin-2-yl)-5H,6H,7H-cyclopenta[d]pyrimidin-4-yl]amino}-N-(1-methylcyclopropyl)propanamide] | 6.9
COc1ccnc(-c2nc3c(c(N(C)[C@H]4CCN(c5ccccc5)C4=O)n2)CCC3)c1 [Compound 205, (3S)-3-{[2-(4-methoxypyridin-2-yl)-5H,6H,7H-cyclopenta[d]pyrimidin-4-yl](methyl)amino}-1-phenylpyrrolidin-2-one] | 7.5
CN(c1nc(-c2ccccn2)nc2c1CCC2)[C@H]1CCN(c2ccc(F)cc2)C1=O [Compound 206, (3S)-1-(4-fluorophenyl)-3-{methyl[2-(pyridin-2-yl)-5H,6H,7H-cyclopenta[d]pyrimidin-4-yl]amino}pyrrolidin-2-one] | 6.9
CN(c1nc(-c2ccccn2)nc2c1CCC2)[C@H]1CCN(C2(C)CCCC2)C1=O [Compound 207, (3S)-3-{methyl[2-(pyridin-2-yl)-5H,6H,7H-cyclopenta[d]pyrimidin-4-yl]amino}-1-(1-methylcyclopentyl)pyrrolidin-2-one] | 7.2
CN(c1nc(-c2ccccn2)nc2c1CCC2)[C@H]1CCN(c2ccncc2)C1=O [Compound 208, (3S)-3-{methyl[2-(pyridin-2-yl)-5H,6H,7H-cyclopenta[d]pyrimidin-4-yl]amino}-1-(pyridin-4-yl)pyrrolidin-2-one] | 5.7

Now from value to compound:

pEC50 | Structure (SMILES)
7.9 | COc1ccc(NC(=O)CN(C)c2nc(-c3cc(OCCO)ccn3)nc3c2CCC3)cn1 [Compound 187, 2-({2-[4-(2-hydroxyethoxy)pyridin-2-yl]-5H,6H,7H-cyclopenta[d]pyrimidin-4-yl}(methyl)amino)-N-(6-methoxypyridin-3-yl)acetamide]
7.7 | COc1ccnc(-c2nc3c(c(N(C)CC(=O)Nc4ccc(F)cc4)n2)CCC3)c1 [Compound 189, N-(4-fluorophenyl)-2-{[2-(4-methoxypyridin-2-yl)-5H,6H,7H-cyclopenta[d]pyrimidin-4-yl](methyl)amino}acetamide]
7.4 | COc1ncc(NC(=O)CN(C)c2nc(-c3cc(OCCO)ccn3)nc3c2CCC3)cn1 [Compound 197, 2-({2-[4-(2-hydroxyethoxy)pyridin-2-yl]-5H,6H,7H-cyclopenta[d]pyrimidin-4-yl}(methyl)amino)-N-(2-methoxypyrimidin-5-yl)acetamide]
8.1 | CN(CC(=O)Nc1ccc(F)cc1)c1nc(-c2cc(OCCO)ccn2)nc2c1CCC2 [Compound 198, N-(4-fluorophenyl)-2-({2-[4-(2-hydroxyethoxy)pyridin-2-yl]-5H,6H,7H-cyclopenta[d]pyrimidin-4-yl}(methyl)amino)acetamide]
7.9 | Cc1ccc(NC(=O)CN(C)c2nc(-c3cc(OCCO)ccn3)nc3c2CCC3)cn1 [Compound 199, 2-({2-[4-(2-hydroxyethoxy)pyridin-2-yl]-5H,6H,7H-cyclopenta[d]pyrimidin-4-yl}(methyl)amino)-N-(6-methylpyridin-3-yl)acetamide]
7.6 | COc1ccnc(-c2nc3c(c(N(C)CC(=O)Nc4ccc(C)nc4)n2)CCC3)c1 [Compound 200, 2-{[2-(4-methoxypyridin-2-yl)-5H,6H,7H-cyclopenta[d]pyrimidin-4-yl](methyl)amino}-N-(6-methylpyridin-3-yl)acetamide]
7.4 | COc1ccc(NC(=O)CN(C)c2nc(-c3cn(C)cn3)nc3c2CCC3)cn1 [Compound 201, N-(6-methoxypyridin-3-yl)-2-{methyl[2-(1-methyl-1H-imidazol-4-yl)-5H,6H,7H-cyclopenta[d]pyrimidin-4-yl]amino}acetamide]
8 | COc1ccc(NC(=O)CN(C)c2nc(-c3cc(OCCO)ccn3)nc3c2CCC3)nc1 [Compound 209, 2-({2-[4-(2-hydroxyethoxy)pyridin-2-yl]-5H,6H,7H-cyclopenta[d]pyrimidin-4-yl}(methyl)amino)-N-(5-methoxypyridin-2-yl)acetamide]
